Reference: US20260355199A1, “COMPOSITIONS AND METHODS FOR TREATING OR PREVENTING NONALCOHOLIC STEATOHEPATITIS (NASH), ANOREXIA, DEPRESSION, ENDOMETRIOSIS, AND OTHER DISEASES OR DISORDERS” (priority 2022, published 2026)
“Also recorded” adds a separate entry of the source.

Experiments:
[1] = test system: Bobcat339-treated ABA mice; test: Behavioral tests (OFT, TST, FST); type: in vivo, mouse
Text: It has been reported that AgRP neuron-specific TET3 knockdown reduces stress-like behaviors with decreased levels of circulating corticosterone. […] The open field test (OFT) has been used to assess general locomotor activity and anxiety; the tail suspension test (TST) and forced swim test (FST) have been used to evaluate behavioral despair and also to test the efficacy of new antidepressant compounds. All three tests (OFT, TST, and FST) have been used in previous studies to assess behavioral impacts of AgRP neurons in mice (Miletta, M. C. et al., 2020, Nature Metabolism, 2:1204-1211).
For all behavioral tests, mice were transferred to the testing room 1 h prior to testing for acclimation to the environment. All behavioral tests were performed in the afternoon (14:00-16:00). All behavioral apparatus was wiped with 70% ethanol prior to each trial and between trials. The open field (OF) apparatus consisted of a 56×56 cm open arena with 30 cm high walls. The mouse was placed into the center of the arena and allowed to move freely for 10 min with the activity being recorded and tracked by LimeLight 3 software (Actimetrics, Coulbourn Instruments). The software recorded and analyzed the distance and time traveled in the central (28×28 cm central area of the OF) and outer areas of the arena. The tail suspension test (TST) and the forced swim test (FST) lasted for 6 min and the total amount of immobility time during the final 4 min was measured for each animal.

Plasma corticosterone = type: in vivo, mouse; details: ABA mice
Protocol: For corticosterone, blood samples were obtained via retroorbital bleeding between 19:00 and 20:00. For alanine transaminase, aspartate transaminase and bilirubin, blood samples were collected by cardiac puncture of terminally anesthetized animals. All blood samples were collected in EDTA tubes (Microtainer with K2EDTA, BD, 365974). The tubes were centrifuged at 2,000×g at 4 °C for 20 min, and plasma was collected and stored at −80 °C until use. Plasma corticosterone levels were measured using Corticosterone ELISA kit (Enzo, ADI-900-097) according to the manufacturer's instructions. Kits used to measure alanine transaminase (EALT-100) and aspartate transaminase (EASTR-100) were purchased from Bioassay Systems. The bilirubin assay kit (MAK126) was purchased from Sigma Aldrich.

AgRP neurons = test: AgRP neuron viability and activation (FOS); type: in vivo, mouse; details: Bobcat339 vs. vehicle mice
Text: As genetic TET3 knockdown specifically in AgRP neurons activated these neurons (Xie et al., 2022, J Clin Invest, 132), additional studies tested whether Bobcat339 treatment can activate AgRP neurons using FOS (a marker for neuronal activation) as a readout. Thus, ARCs were isolated under fed conditions (9:00-11:00) from mice treated with Bobcat339 or vehicle as above (FIG. 16A through FIG. 16D).
Bobcat339 powder (Sigma-Aldrich, SML2611) was freshly dissolved in DMSO (vehicle) at a concentration of 50 mg/mL and filtered through a 0.22 micron. It was further diluted with 1×PBS to a final concentration of 0.5 mg/mL before injections. Mice were injected intraperitoneally with Bobcat339 at 1 mg/kg, 2.5 mg/kg, or 4 mg/kg.
The immunofluorescence for brain slices was conducted using previous methods (18). In brief, postfixed sections were cut into 40-μm-thick sections, followed by 5 times washing. […] The sections were coverslipped and scoped using a Keyence BZ-X700 fluorescence microscope. The fluorescence signals from GFP in AgRP neurons were detected without immunostaining.

Agrp promoter = test: hMeDIP-qPCR (5hmC) at the Agrp promoter in mouse ARC; type: in vivo; details: leptin- vs. saline-treated
Protocol: To assess leptin effects on suppression of hunger-induced appetite, female Cas9+ mice injected with AAV or AAV-sgTet3 bilaterally into the ARC were fasted overnight for 22 h. On the second day, mouse leptin (L3772-1MG, Sigma Aldrich) was administrated at 5 mg/kg intraperitoneally at 10:00 and pre-weighed food was placed in the cage and monitored for the following 24 h. For ChIP studies, Cas9+ mice injected with AAV or AAVsgTet3 bilaterally into the ARC were fasted overnight for 22 h. On the second day, saline or leptin (5 mg/kg) was administrated intraperitoneally at 10:00. Two hours later, ARCs were isolated for ChIP-qPCR analysis. To examine leptin-induced protein-protein interactions, Cas9+ mice were fasted overnight for 22 h. […]
The experiments were carried out using the EpiQuik hMeDIP Kit (P-1038-48, Epigentek) according to the manufacturer's instructions. […] Sheared DNA fragments (ranged in size from 200-600 bps as assessed by agarose gel electrophoresis) were immunoprecipitated using the 5hmC rabbit polyclonal antibody from the kit. qPCR was performed in a 25 μl reaction containing 2.5 μl of the eluted DNA using iTAC SYBGreen in a Bio-Rad iCycler. The relative enrichments (after normalization against control IgG) of the indicated DNA regions were calculated using the Percent Input Method according to the manufacturer's instructions.

Nc1nc(=O)n(-c2cccc(-c3ccccc3)c2)cc1Cl [Bobcat339, 4-Amino-1-[1,1′-biphenyl]-3-yl-5-chloro-2(1H)-pyrimidinone]
FST immobility time ([1]; forced swim test): spent less immobility time
OFT time spent in the center zone ([1]; open field test): increased time spent in the center zone
OFT total distance travelled ([1]; open field test): no differences in the total distance travelled
TST immobility time ([1]; tail suspension test): spent less immobility time
plasma cortisol levels (Plasma corticosterone): reduced plasma cortisol levels
AgRP neuronal viability / number (AgRP neurons): did not affect AgRP neuronal viability; also recorded: no significant difference between the groups
FOS expression in AgRP neurons (AgRP neurons; fed): increased expression of FOS in AgRP neurons

leptin: adipose hormone; mouse leptin L3772-1MG or human leptin L4146-1MG, Sigma Aldrich
5hmC in the Agrp promoter (Agrp promoter): an increase in 5hmC in the Agrp promoter
